From PMC5085100, “Conjugation to the sigma-2 ligand SV119 overcomes uptake blockade and converts dm-Erastin into a potent pancreatic cancer therapeutic” (Oncotarget, 2016)

Biological target: T1, cystine/glutamate antiporter (system xc-) (Homo sapiens, UniProt Q9UPY5)
T1 construct: gene SLC7A11
T1 sequence (Q9UPY5 1-501): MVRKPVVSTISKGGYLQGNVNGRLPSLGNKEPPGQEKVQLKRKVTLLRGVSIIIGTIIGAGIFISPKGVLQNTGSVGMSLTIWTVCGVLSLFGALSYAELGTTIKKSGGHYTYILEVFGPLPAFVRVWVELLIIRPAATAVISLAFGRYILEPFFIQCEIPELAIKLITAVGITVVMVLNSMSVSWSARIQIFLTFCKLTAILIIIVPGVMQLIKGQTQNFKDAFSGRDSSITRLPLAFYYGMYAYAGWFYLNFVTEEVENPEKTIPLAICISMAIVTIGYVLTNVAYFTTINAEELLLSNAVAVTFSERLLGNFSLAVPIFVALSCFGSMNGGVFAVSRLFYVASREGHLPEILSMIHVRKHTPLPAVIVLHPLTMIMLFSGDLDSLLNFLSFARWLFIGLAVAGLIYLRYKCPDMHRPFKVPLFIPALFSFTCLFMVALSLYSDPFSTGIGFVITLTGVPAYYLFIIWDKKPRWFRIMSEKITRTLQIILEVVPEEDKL
T1 sequence (P08195 2-529 partner): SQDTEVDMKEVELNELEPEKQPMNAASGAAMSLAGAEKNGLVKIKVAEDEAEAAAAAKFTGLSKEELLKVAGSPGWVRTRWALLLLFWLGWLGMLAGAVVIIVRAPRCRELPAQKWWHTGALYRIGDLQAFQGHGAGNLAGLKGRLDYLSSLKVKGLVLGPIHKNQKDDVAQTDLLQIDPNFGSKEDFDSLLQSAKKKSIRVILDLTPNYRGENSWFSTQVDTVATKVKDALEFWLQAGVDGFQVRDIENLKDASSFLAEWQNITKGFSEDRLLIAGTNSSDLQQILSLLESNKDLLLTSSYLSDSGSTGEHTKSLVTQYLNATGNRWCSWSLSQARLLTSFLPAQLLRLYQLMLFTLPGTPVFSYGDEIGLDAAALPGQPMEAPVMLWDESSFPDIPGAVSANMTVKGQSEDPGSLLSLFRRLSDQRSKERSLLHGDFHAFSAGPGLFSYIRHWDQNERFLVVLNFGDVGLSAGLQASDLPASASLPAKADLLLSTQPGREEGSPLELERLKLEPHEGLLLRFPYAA
Test: […]-cystine uptake inhibition in AsPC-1 cells, […] min at […]
Format: cell-based
Settings: ASPC1; read-out: % blockade at 200 μM

CCOc1ccccc1-n1c(CN2CCN(C(=O)COc3ccc(CNCCCCCCN4C5CCCC4CC(OC(=O)Nc4cc(C)ccc4OC)C5)cc3)CC2)nc2ccccc2c1=O (stereo not shown) [SW V-49] gave an inhibition at 200 µM of 85%.
